Series [1] has as its system first recurrence of ovarian cancer. Conditions: added to carboplatin and gemcitabine; ref [56]; cited from earlier work.
The subject of series [2] is non-small cell lung carcinoma (NSCLC). The following applies: ref [59]; cited from earlier work.
Series [3] relates to A2780 and OVCAR-3 human ovarian cancer cell lines. Briefly: Single agent in vitro cytotoxicity, WST-8, result stated over both cell lines. The class given is cell-based. The following applies: A2780 versus OVCAR-3, WST-8.
For series [4] the following is noted: cited from earlier work; for water solubility of free drugs: medium with 0.5 % (v/v) DMSO used to prevent precipitation, no reference given.
For series [5] the following is noted: clinical investigation; ref [31]; cited from earlier work.
For series [6] the following is noted: ref [13]–[15]; cited from earlier work.
The conditions of series [7]: ref [8]; cited from earlier work.

“bevacizumab: anti-angiogenic monoclonal antibody against VEGF-A, added to carboplatin and gemcitabine”: the “disease progression and overall survival” value in series [1] was “greater reduction in risk of disease progression and an improvement in overall survival”.
`CC(=O)O[C@H]1C(=O)[C@@]2(C)[C@H]([C@H](OC(=O)c3ccccc3)[C@]3(O)C[C@H](OC(=O)[C@H](O)[C@@H](NC(=O)c4ccccc4)c4ccccc4)C(C)=C1C3(C)C)[C@]1(OC(C)=O)CO[C@@H]1C[C@@H]2O` [paclitaxel]: in series [2], the mean survival time is 6.5 weeks.
As for `CO[C@H]1/C=C\C=C(/C)C(=O)NC2=CC(=O)C(NCCCCCCN)=C(C[C@@H](C)C[C@H](OC)[C@H](O)[C@@H](C)/C=C(\C)[C@@H]1OC(N)=O)C2=O` [AHGDM, 17-(hexane-1,6-diamine)-17-demethoxygeldanamycin], the “differences in susceptibility of cell lines” value in series [3] is recorded as “did not indicate overall trends in differences in the susceptibility”. Moreover, the “water solubility of free drugs” value in series [4] is given as “poor water solubility”.
On to `COC1=C2C[C@@H](C)C[C@H](OC)[C@H](O)[C@@H](C)/C=C(\C)[C@H](OC(N)=O)[C@@H](OC)/C=C\C=C(/C)C(=O)NC(=CC1=O)C2=O` [geldanamycin], for which the “hepatotoxicity” value in series [5] is listed as “significant hepatotoxicity”.
Regarding `C=CCNC1=C2C[C@@H](C)C[C@H](OC)[C@H](O)[C@@H](C)/C=C(\C)[C@H](OC(N)=O)[C@@H](OC)/C=C\C=C(/C)C(=O)NC(=CC1=O)C2=O` [17-AAG, 17-(allylamino)-17-demethoxygeldanamycin], the “water solubility, ref 32” value in series [4] (ref [32]) was “poorly water soluble”.
Consider `CC(=O)O[C@@]12CO[C@@H]1C[C@H](O)[C@@]1(C)C(=O)[C@H](O)C3=C(C)[C@@H](OC(=O)[C@H](O)[C@@H](NC(=O)OC(C)(C)C)c4ccccc4)C[C@@](O)([C@@H](OC(=O)c4ccccc4)[C@H]21)C3(C)C` [DOC, docetaxel], for which, in series [6], the “cross resistance with paclitaxel” value was “does not demonstrate complete cross resistance with paclitaxel”. Besides, the “differences in susceptibility of cell lines” value in series [3] was “did not indicate overall trends in differences in the susceptibility”. Besides, the “water solubility of free drugs” value in series [4] is “poor water solubility”. In series [7], the “in vitro cytotoxicity compared to paclitaxel” value is listed as “superior in vitro cytotoxicity”.
